Columns and labels:
[1] = excess molar enthalpy (molar enthalpy of mixing); xn = mol fraction of the nth substance listed; details: 291.15 K, 101 kPa, Liquid, Calvet calorimetry
[2] = xn = mol fraction of the nth substance listed; details: 101 kPa, Liquid, Vibrating tube method

CCCOC(C)=O [propyl ethanoate] + CCCCCCCCC
[1]
Details	excess molar enthalpy [kcal/mol]
x1 = 0.1167	0.142
x1 = 0.2247	0.2261
x1 = 0.3093	0.2789
x1 = 0.379	0.3102
x1 = 0.4448	0.325
x1 = 0.5009	0.3305
x1 = 0.5447	0.3277
x1 = 0.5617	0.3248
x1 = 0.6139	0.3136
x1 = 0.6683	0.2921
x1 = 0.7299	0.2593
x1 = 0.7964	0.215
x1 = 0.8649	0.155
x1 = 0.9356	0.0848

[2]
Details	mass density [kg/m3]
291.15 K, x1 = 0.0569	724.6
291.15 K, x1 = 0.1163	730.7
291.15 K, x1 = 0.1916	739
291.15 K, x1 = 0.282	750
291.15 K, x1 = 0.3583	760
291.15 K, x1 = 0.4338	770.9
291.15 K, x1 = 0.4846	778.7
291.15 K, x1 = 0.5686	792.4
291.15 K, x1 = 0.6289	803.2
291.15 K, x1 = 0.6876	814.4
291.15 K, x1 = 0.7441	826
291.15 K, x1 = 0.7948	837.1
291.15 K, x1 = 0.8162	841.9
291.15 K, x1 = 0.8844	858.5
291.15 K, x1 = 0.9349	871.7
291.15 K, x1 = 0.9464	874.9
291.15 K, x1 = 1	889.6
298.15 K, x1 = 0.0361	717.2
298.15 K, x1 = 0.0384	717.4
298.15 K, x1 = 0.1106	724.5
298.15 K, x1 = 0.2023	734.5
298.15 K, x1 = 0.2833	744.2
298.15 K, x1 = 0.3636	754.6
298.15 K, x1 = 0.4312	764.2
298.15 K, x1 = 0.5061	775.6
298.15 K, x1 = 0.5653	785.3
298.15 K, x1 = 0.6308	796.9
298.15 K, x1 = 0.6728	804.8
298.15 K, x1 = 0.7321	816.5
298.15 K, x1 = 0.7908	829
298.15 K, x1 = 0.8257	836.9
298.15 K, x1 = 0.8918	852.8
298.15 K, x1 = 0.9404	865.6
298.15 K, x1 = 1	882.5
318.15 K, x1 = 0.0217	700
318.15 K, x1 = 0.1046	707.7
318.15 K, x1 = 0.1791	715.4
318.15 K, x1 = 0.2659	725
318.15 K, x1 = 0.335	733.4
318.15 K, x1 = 0.4077	742.9
318.15 K, x1 = 0.4731	752.1
318.15 K, x1 = 0.5367	761.7
318.15 K, x1 = 0.5943	771
318.15 K, x1 = 0.6526	781.2
318.15 K, x1 = 0.7078	791.4
318.15 K, x1 = 0.7597	801.7
318.15 K, x1 = 0.8179	814.1
318.15 K, x1 = 0.8565	822.8
318.15 K, x1 = 0.8964	832.4
318.15 K, x1 = 0.9373	842.7
318.15 K, x1 = 1	859.8
328.15 K, x1 = 0.056	695.1
328.15 K, x1 = 0.1062	699.8
328.15 K, x1 = 0.1918	708.3
328.15 K, x1 = 0.2757	717.5
328.15 K, x1 = 0.3519	726.6
328.15 K, x1 = 0.429	736.7
328.15 K, x1 = 0.4999	746.7
328.15 K, x1 = 0.5709	757.6
328.15 K, x1 = 0.6217	766
328.15 K, x1 = 0.6881	777.7
328.15 K, x1 = 0.7461	788.7
328.15 K, x1 = 0.7857	796.8
328.15 K, x1 = 0.8318	806.6
328.15 K, x1 = 0.8801	817.6
328.15 K, x1 = 0.8853	818.8
328.15 K, x1 = 0.9429	833
328.15 K, x1 = 1	848.3

From the NIST ThermoML archive (doi:10.1021/je3011979)
